Results published in PMC10008561 (Nature Communications, 2023).
Several values for one entry are separate records, joined by “and”; a condition that tells them apart may be missing. Identical values can stand only once.

Experiments:
human KOR (Gz) [1] = target: T1, human KOR (Gz) (Homo sapiens, UniProt P41145, D266A); assay: cell-based
T1 construct: expressed in transfected cells; host or cells: HEK293T

human KOR (Gz) [2] = target: T2, human KOR (Gz) (Homo sapiens, UniProt P41145, Y320L); assay: cell-based
T2 construct: expressed in transfected cells; host or cells: HEK293T
T2 sequence (P41145 whole entry Y320L): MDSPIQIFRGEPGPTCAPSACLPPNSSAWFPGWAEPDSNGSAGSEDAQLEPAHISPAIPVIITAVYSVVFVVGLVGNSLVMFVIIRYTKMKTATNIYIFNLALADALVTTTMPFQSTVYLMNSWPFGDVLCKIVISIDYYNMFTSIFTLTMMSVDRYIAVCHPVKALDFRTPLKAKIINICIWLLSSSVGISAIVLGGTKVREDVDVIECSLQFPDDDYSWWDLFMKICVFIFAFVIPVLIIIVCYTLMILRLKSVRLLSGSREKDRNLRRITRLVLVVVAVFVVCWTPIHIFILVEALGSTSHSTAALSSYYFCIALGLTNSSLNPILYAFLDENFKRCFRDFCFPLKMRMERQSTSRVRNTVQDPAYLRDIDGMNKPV

human KOR (Gz) [3] = target: T3, human KOR (Gz) (Homo sapiens, UniProt P41145, R170A); assay: cell-based
T3 construct: expressed in transfected cells; host or cells: HEK293T
T3 sequence (P41145 whole entry R170A): as the sequence (P41145 whole entry Y320L) above, with R170A, L320Y counted along it

human KOR (Gz) [4] = target: T4, human KOR (Gz) (Homo sapiens, UniProt P41145, D155A); assay: cell-based; conditions: HEK-293T
T4 construct: expressed in transfected cells; host or cells: HEK293T
T4 sequence (P41145 whole entry D155A): as the sequence (P41145 whole entry Y320L) above, with D155A, L320Y counted along it

human KOR (Gz) [5] = target: T5, human KOR (Gz) (Homo sapiens, UniProt P41145, F114L); assay: cell-based
T5 construct: expressed in transfected cells; host or cells: HEK293T
T5 sequence (P41145 whole entry F114L): as the sequence (P41145 whole entry Y320L) above, with F114L, L320Y counted along it

human KOR (Gz) [6] = target: T6, human KOR (Gz) (Homo sapiens, UniProt P41145, G319L); assay: cell-based
T6 construct: expressed in transfected cells; host or cells: HEK293T
T6 sequence (P41145 whole entry G319L): as the sequence (P41145 whole entry Y320L) above, with G319L, L320Y counted along it

human KOR (Gz) [7] = target: T7, human KOR (Gz) (Homo sapiens, UniProt P41145, N326A); assay: cell-based
T7 construct: expressed in transfected cells; host or cells: HEK293T
T7 sequence (P41145 whole entry N326A): as the sequence (P41145 whole entry Y320L) above, with L320Y, N326A counted along it

human KOR (Gz) [8] = target: T8, human KOR (Gz) (Homo sapiens, UniProt P41145, K227A); assay: cell-based
T8 construct: expressed in transfected cells; host or cells: HEK293T
T8 sequence (P41145 whole entry K227A): as the sequence (P41145 whole entry Y320L) above, with K227A, L320Y counted along it

human KOR (Gz) [9] = target: T9, human KOR (Gz) (Homo sapiens, UniProt P41145, N322A); assay: cell-based
T9 construct: expressed in transfected cells; host or cells: HEK293T
T9 sequence (P41145 whole entry N322A): as the sequence (P41145 whole entry Y320L) above, with L320Y, N322A counted along it

human KOR (Gz) [10] = target: T10, human KOR (Gz) (Homo sapiens, UniProt P41145, R274A); assay: cell-based
T10 construct: expressed in transfected cells; host or cells: HEK293T
T10 sequence (P41145 whole entry R274A): as the sequence (P41145 whole entry Y320L) above, with R274A, L320Y counted along it

human KOR (Gz) [11] = target: T11, human KOR (Gz) (Homo sapiens, UniProt P41145, D334A); assay: cell-based
T11 construct: expressed in transfected cells; host or cells: HEK293T
T11 sequence (P41145 whole entry D334A): as the sequence (P41145 whole entry Y320L) above, with L320Y, D334A counted along it

[12] = ref Liu et al., Neuropsychopharmacology, 2018, Abraham et al., cited from earlier work
human KOR (Gustducin) [13] = target: T12, human KOR (Gustducin) (Homo sapiens, UniProt P41145, N141A); assay: cell-based; conditions: HEK-293T
T12 construct: expressed in transfected cells; host or cells: HEK293T
T12 sequence (P41145 whole entry N141A): as the sequence (P41145 whole entry Y320L) above, with N141A, L320Y counted along it

human KOR (Gustducin) [14] = target: T13, human KOR (Gustducin) (Homo sapiens, UniProt P41145, Y139L); assay: cell-based; conditions: HEK-293T
T13 construct: expressed in transfected cells; host or cells: HEK293T
T13 sequence (P41145 whole entry Y139L): as the sequence (P41145 whole entry Y320L) above, with Y139L, L320Y counted along it

human KOR (Gustducin) [15] = target: T14, human KOR (Gustducin) (Homo sapiens, UniProt P41145, G319L); assay: cell-based; conditions: HEK-293T
T14 construct: expressed in transfected cells; host or cells: HEK293T
T14 sequence (P41145 whole entry G319L): as the sequence (P41145 whole entry Y320L) above, with G319L, L320Y counted along it

human KOR (Gustducin) [16] = target: T15, human KOR (Gustducin) (Homo sapiens, UniProt P41145, T94V); assay: cell-based; conditions: HEK-293T
T15 construct: expressed in transfected cells; host or cells: HEK293T
T15 sequence (P41145 whole entry T94V): as the sequence (P41145 whole entry Y320L) above, with T94V, L320Y counted along it

human KOR (Gustducin) [17] = target: T16, human KOR (Gustducin) (Homo sapiens, UniProt P41145, Q115N); assay: cell-based; conditions: HEK-293T
T16 construct: expressed in transfected cells; host or cells: HEK293T
T16 sequence (P41145 whole entry Q115N): as the sequence (P41145 whole entry Y320L) above, with Q115N, L320Y counted along it

human KOR (Gustducin) [18] = target: T17, human KOR (Gustducin) (Homo sapiens, UniProt P41145); assay: cell-based
T17 construct: expressed in transfected cells; host or cells: HEK293T
T17 sequence (P41145 whole entry): as the sequence (P41145 whole entry Y320L) above, with L320Y counted along it

human KOR (Gustducin) [19] = target: T18, human KOR (Gustducin) (Homo sapiens, UniProt P41145, D266A); assay: cell-based; conditions: HEK-293T
T18 construct: expressed in transfected cells; host or cells: HEK293T
T18 sequence (P41145 whole entry D266A): as the sequence (P41145 whole entry Y320L) above, with D266A, L320Y counted along it

human KOR (Gustducin) [20] = target: T19, human KOR (Gustducin) (Homo sapiens, UniProt P41145, F283A); assay: cell-based; conditions: HEK-293T
T19 construct: expressed in transfected cells; host or cells: HEK293T
T19 sequence (P41145 whole entry F283A): as the sequence (P41145 whole entry Y320L) above, with F283A, L320Y counted along it

human KOR (Gustducin) [21] = target: T20, human KOR (Gustducin) (Homo sapiens, UniProt P41145, D105A); assay: cell-based; conditions: HEK-293T
T20 construct: expressed in transfected cells; host or cells: HEK293T
T20 sequence (P41145 whole entry D105A): as the sequence (P41145 whole entry Y320L) above, with D105A, L320Y counted along it

human KOR (Gustducin) [22] = target: T21, human KOR (Gustducin) (Homo sapiens, UniProt P41145, E297A); assay: cell-based; conditions: HEK-293T
T21 construct: expressed in transfected cells; host or cells: HEK293T
T21 sequence (P41145 whole entry E297A): as the sequence (P41145 whole entry Y320L) above, with E297A, L320Y counted along it

human KOR (Gustducin) [23] = target: T22, human KOR (Gustducin) (Homo sapiens, UniProt P41145, Y320L); assay: cell-based; conditions: HEK-293T
T22 construct: expressed in transfected cells; host or cells: HEK293T
T22 sequence (P41145 whole entry Y320L): as the sequence (P41145 whole entry Y320L) above

human KOR (Gustducin) [24] = target: T23, human KOR (Gustducin) (Homo sapiens, UniProt P41145, R274A); assay: cell-based; conditions: HEK-293T
T23 construct: expressed in transfected cells; host or cells: HEK293T
T23 sequence (P41145 whole entry R274A): as the sequence (P41145 whole entry Y320L) above, with R274A, L320Y counted along it

human KOR (Gustducin) [25] = target: T24, human KOR (Gustducin) (Homo sapiens, UniProt P41145, R271A); assay: cell-based; conditions: HEK-293T
T24 construct: expressed in transfected cells; host or cells: HEK293T
T24 sequence (P41145 whole entry R271A): as the sequence (P41145 whole entry Y320L) above, with R271A, L320Y counted along it

human KOR (Gustducin) [26] = target: T25, human KOR (Gustducin) (Homo sapiens, UniProt P41145, L253A); assay: cell-based; conditions: HEK-293T
T25 construct: expressed in transfected cells; host or cells: HEK293T
T25 sequence (P41145 whole entry L253A): as the sequence (P41145 whole entry Y320L) above, with L253A, L320Y counted along it

human KOR (Gustducin) [27] = target: T26, human KOR (Gustducin) (Homo sapiens, UniProt P41145, F114L); assay: cell-based; conditions: HEK-293T
T26 construct: expressed in transfected cells; host or cells: HEK293T
T26 sequence (P41145 whole entry F114L): as the sequence (P41145 whole entry Y320L) above, with F114L, L320Y counted along it

human KOR (Gustducin) [28] = target: T27, human KOR (Gustducin) (Homo sapiens, UniProt P41145, K200A); assay: cell-based; conditions: HEK-293T
T27 construct: expressed in transfected cells; host or cells: HEK293T
T27 sequence (P41145 whole entry K200A): as the sequence (P41145 whole entry Y320L) above, with K200A, L320Y counted along it

human KOR (Gustducin) [29] = target: T28, human KOR (Gustducin) (Homo sapiens, UniProt P41145, D155A); assay: cell-based; conditions: HEK-293T
T28 construct: expressed in transfected cells; host or cells: HEK293T
T28 sequence (P41145 whole entry D155A): as the sequence (P41145 whole entry Y320L) above, with D155A, L320Y counted along it

human KOR (Gustducin) [30] = target: T29, human KOR (Gustducin) (Homo sapiens, UniProt P41145, D334A); assay: cell-based; conditions: HEK-293T
T29 construct: expressed in transfected cells; host or cells: HEK293T
T29 sequence (P41145 whole entry D334A): as the sequence (P41145 whole entry Y320L) above, with L320Y, D334A counted along it

human KOR (Gustducin) [31] = target: T30, human KOR (Gustducin) (Homo sapiens, UniProt P41145, R257A); assay: cell-based; conditions: HEK-293T
T30 construct: expressed in transfected cells; host or cells: HEK293T
T30 sequence (P41145 whole entry R257A): as the sequence (P41145 whole entry Y320L) above, with R257A, L320Y counted along it

human KOR (Gustducin) [32] = target: T31, human KOR (Gustducin) (Homo sapiens, UniProt P41145, K227A); assay: cell-based; conditions: HEK-293T
T31 construct: expressed in transfected cells; host or cells: HEK293T
T31 sequence (P41145 whole entry K227A): as the sequence (P41145 whole entry Y320L) above, with K227A, L320Y counted along it

human KOR (Gustducin) [33] = target: T32, human KOR (Gustducin) (Homo sapiens, UniProt P41145, N326A); assay: cell-based; conditions: HEK-293T
T32 construct: expressed in transfected cells; host or cells: HEK293T
T32 sequence (P41145 whole entry N326A): as the sequence (P41145 whole entry Y320L) above, with L320Y, N326A counted along it

human KOR (Gustducin) [34] = target: T33, human KOR (Gustducin) (Homo sapiens, UniProt P41145, N322A); assay: cell-based; conditions: HEK-293T
T33 construct: expressed in transfected cells; host or cells: HEK293T
T33 sequence (P41145 whole entry N322A): as the sequence (P41145 whole entry Y320L) above, with L320Y, N322A counted along it

human KOR (Gustducin) [35] = target: T34, human KOR (Gustducin) (Homo sapiens, UniProt P41145, R170A); assay: cell-based; conditions: HEK-293T
T34 construct: expressed in transfected cells; host or cells: HEK293T
T34 sequence (P41145 whole entry R170A): as the sequence (P41145 whole entry Y320L) above, with R170A, L320Y counted along it

MOR = target: T35, MOR (Homo sapiens, UniProt P35372); assay: Radioligand competition binding (3H-Diprenorphine)
T35 construct: expressed in transfected cells; host or cells: HEK293
T35 sequence (P35372 whole entry): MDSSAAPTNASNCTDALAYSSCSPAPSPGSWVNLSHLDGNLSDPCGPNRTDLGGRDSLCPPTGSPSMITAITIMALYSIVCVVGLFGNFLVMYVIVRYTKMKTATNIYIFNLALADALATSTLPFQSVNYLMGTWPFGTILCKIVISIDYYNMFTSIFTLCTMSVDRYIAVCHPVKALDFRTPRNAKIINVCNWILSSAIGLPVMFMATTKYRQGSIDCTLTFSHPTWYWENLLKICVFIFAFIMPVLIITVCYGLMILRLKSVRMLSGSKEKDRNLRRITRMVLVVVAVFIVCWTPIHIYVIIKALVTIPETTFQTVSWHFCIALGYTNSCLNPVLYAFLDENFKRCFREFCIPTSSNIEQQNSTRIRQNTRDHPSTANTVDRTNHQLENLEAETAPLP

T1 sequence (P41145 whole entry D266A): as the sequence (P41145 whole entry Y320L) above, with D266A, L320Y counted along it

For `CN(C(=O)/C=C/c1ccoc1)[C@@H]1CC[C@@]2(O)[C@H]3Cc4ccc(O)c5c4[C@@]2(CCN3CC2CC2)[C@H]1O5` [Nalfurafine, nalfurafine], the “FC vs wild type” value (human KOR (Gz) [1]) was 1259, the Emax (human KOR (Gz) [1]; HEK-293T) was 112% and the “FC vs wild type” value (human KOR (Gz) [2]) was 407. For the same molecule, the Emax (human KOR (Gz) [2]; HEK-293T) was 93.7%, the “FC vs wild type” value (human KOR (Gz) [3]) was 13 and ~10 and the Emax (human KOR (Gz) [3]; HEK-293T) was 96%. For the same molecule, the Emax (human KOR (Gz) [4]) was 92.7%, the “FC vs wild type” value (human KOR (Gz) [5]) was 54 and the Emax (human KOR (Gz) [5]; HEK-293T) was 85.6%. For the same molecule, the “FC vs wild type” value (human KOR (Gz) [6]) was 162, the “FC vs wild type” value (human KOR (Gz) [7]) was 69 and the Emax (human KOR (Gz) [7]; HEK-293T) was 96.9%. The “FC vs wild type” value (human KOR (Gz) [8]) was 3, the “FC vs wild type” value (human KOR (Gz) [9]) was 1259 and the Emax (human KOR (Gz) [9]; HEK-293T) was 81.8%. For the same molecule, the “FC vs wild type” value (human KOR (Gz) [10]) was 977, the Emax (human KOR (Gz) [10]; HEK-293T) was 99.1% and the “FC vs wild type” value (human KOR (Gz) [11]) was 112. The Emax (human KOR (Gz) [11]; HEK-293T) was 99.2%, the side effects ([12]; high dose 20-50 μg/Kg) was “starts causing motor incoordination, sedation, and aversion effects” and the “side effects (dysphoria, sedation, hallucinations)” value ([12]; low dose 2.5-20 μg/Kg) was “does not produce typical”. The Emax (human KOR (Gustducin) [13]) was 79.1%, the Emax (human KOR (Gustducin) [14]) was 55.3% and the Emax (human KOR (Gustducin) [15]) was 80.9%. For the same molecule, the Emax (human KOR (Gustducin) [16]) was 73.6%, the Emax (human KOR (Gustducin) [17]) was 62.9% and the Emax% (human KOR (Gustducin) [18]) was 65%. It also gave an Emax (human KOR (Gustducin) [18]; HEK-293T) of 65.6%, an Emax (human KOR (Gustducin) [19]) of 62.6% and an Emax (human KOR (Gustducin) [20]) of 100%. The Emax (human KOR (Gustducin) [21]) was 70.2%, the Emax (human KOR (Gustducin) [22]) was 73.1% and the Emax (human KOR (Gustducin) [23]) was 80%. It also gave an Emax (human KOR (Gustducin) [24]) of 82%, an Emax (human KOR (Gustducin) [25]) of 56.9% and an Emax (human KOR (Gustducin) [26]) of 61.4%. It also gave an Emax (human KOR (Gustducin) [27]) of 60.6%, an Emax (human KOR (Gustducin) [28]) of 75.7% and an Emax (human KOR (Gustducin) [29]) of 91.8%. For the same molecule, the Emax (human KOR (Gustducin) [30]) was 100%, the Emax (human KOR (Gustducin) [31]) was 53.8% and the Emax (human KOR (Gustducin) [32]) was 85.5%. It also gave an Emax (human KOR (Gustducin) [33]) of 49.2%, an Emax (human KOR (Gustducin) [34]) of 96.6% and an Emax (human KOR (Gustducin) [35]) of 77.5%. It also gave a Ki (MOR) of 13.2 nM.
